Laboratory results as given in patent publication US8530513B1, “Pharmaceutical uses of diterpene excavatolide B from a coral or an analogue thereof” (National Sun Yat-Sen University, priority 2012, dated 2013).

Experiments:
IκBα = test: TPA-stimulated IκBα phosphorylation in mouse skin, western blot; assay type: in vivo; settings: topical for 2 h after TPA
Description: Shaven abdominal skins of female C57BL/6JNarl mice were not treated or topically treated with vehicle (acetone, 200 μl/site) or TPA (10 nmol in 200 μl acetone/site) at indicated time points or treated first with TPA for 10 min, then with the indicated concentrations of BrD1 at the indicated time points. Abdominal skin samples were collected, homogenated and lysed to prepare total proteins. Protein samples were subsequently resolved by SDS-PAGE using a gradient gel. The resolved proteins were transferred to a PVDF Immobilon-P membrane (Millipore, Bedford, Calif.), and the membrane was blocked with 5% non-fat dry milk in PBST buffer (phosphate-buffered saline (PBS) containing 0.1% Tween 20) for 60 minutes at room temperature. The membranes were incubated overnight at 4° C. with commercially available antibodies (1:1000 dilutions). Loading of equal amounts of protein was assessed using mouse β-actin. The blots were rinsed three times with PBST buffer for 5 minutes. Washed blots were incubated with HRP-conjugated secondary antibody (1:100,000 dilution), then washed again three times with PBST buffer. […] Quantification of bands was performed using Image J software.
We therefore evaluated whether BrD1 could interfere with TPA-induced activation of Akt and Erk in inflamed skin. […] We thus determined the phosphorylation level of Akt, Erk, NF-κB and IκBα in skins subjected to different treatments. […]

COX-2 = test: TPA-induced COX-2 expression in mouse skin, immunohistochemical staining; assay type: in vivo; settings: topical for 6 h after TPA, anti-COX-2 immunostaining
TNF-α = test: LPS-induced TNF-α expression in mouse bone marrow-derived dendritic cells, ELISA; assay type: cell-based; settings: LPS 100 ng/ml plus BrD1 at different concentrations, 24 h
Description: For mouse bone marrow-derived DCs (BMDCs), five to six-week-old female C57BL/6JNarl mice were purchased from the National Laboratory Animal Center, Taiwan and kept under SPF conditions. BMDCs were generated from bone marrow cells of C57BL/6 mice as described previously (Yin S Y, Wang W H, Wang B X, Aravindaram K, Hwang P I, Wu H M, Yang N S. BMC genomics 2010, 11:612). In brief, bone marrow was isolated from femurs and tibiae which were then flushed with RPMI-1640 medium using a syringe with a 0.45-mm needle on Day 0. Red blood cells in suspension were lysed for […] with ACK lysing buffer (150 mM NH4Cl, 1.0 mM KHCO3, 0.1 mM EDTA). Bone marrow cells were suspended at a density of 1×10^7 cells/30 ml in RPMI-1640 containing 10% FBS, 2 mM L-glutamine, 1% of nonessential amino acids, 100 U/mL penicillin and 100 μg/mL streptomycin supplemented with 20 ng/mL of mGM-CSF in 15-cm dishes at 37° C. with 5% CO2. On day 2, two-thirds of the medium was removed and 30 mL fresh medium with mGM-CSF was added to the cells. On day 5, culture plates were gently swirled and the floating and loosely adherent cells were discarded. Aliquots of 75% culture media were replenished with 20 ng/mL mGM-CSF and 20 ng/mL mIL-4. […]

MMP-9 = test: TPA-induced MMP-9 protein expression in mouse skin, western blot; assay type: in vivo; settings: for TPA-induced MMP-9 protein expression (in words): topical after TPA, 24 h, indicated concentrations
Description: Shaven abdominal skins of female C57BL/6JNarl mice were not treated or topically treated with vehicle (acetone, 200 μl/site) or TPA (10 nmol in 200 μl acetone/site) at indicated time points or treated first with TPA for 10 min, then with the indicated concentrations of BrD1 at the indicated time points. Abdominal skin samples were collected, homogenated and lysed to prepare total proteins. Protein samples were subsequently resolved by SDS-PAGE using a gradient gel. The resolved proteins were transferred to a PVDF Immobilon-P membrane (Millipore, Bedford, Calif.), and the membrane was blocked with 5% non-fat dry milk in PBST buffer (phosphate-buffered saline (PBS) containing 0.1% Tween 20) for 60 minutes at room temperature. The membranes were incubated overnight at 4° C. with commercially available antibodies (1:1000 dilutions). Loading of equal amounts of protein was assessed using mouse β-actin. The blots were rinsed three times with PBST buffer for 5 minutes. Washed blots were incubated with HRP-conjugated secondary antibody (1:100,000 dilution), then washed again three times with PBST buffer. The transferred proteins were visualized with an enhanced chemiluminescence (ECL) detection kit (Amersham Pharmacia Biotech, Buckinghamshire, UK). Quantification of bands was performed using Image J software.
Matrix metalloproteinases (MMPs) play a crucial role in many physiological and pathological processes through remodeling extracellular matrix tissues (Stamenkovic I. J Pathol 2003, 200:448-464). Matrix metalloproteinase-9 (MMP-9), a gelatinase which has a key role in inflammatory response, is activated in skin during tissue injury (Shakarjian M P, Bhatt P, Gordon M K, Chang Y C, Casbohm S L, Rudge T L, Kiser R C, Sabourin C L, Casillas R P, Ohman-Strickland P, Riley D J, Gerecke D R. J Appl Toxicol 2006, 26:239-246). In order to evaluate the anti-inflammatory effect of BrD1 on MMP-9 activation in TPA-inflamed skin, BrD1 was topically applied after TPA treatment for 24 h. […] Inhibiton of TPA-inducedMMP-9 expression by BrD1 treatment could also be readily observed at the mRNA level.

CCCC(=O)O[C@H]1C/C(C)=C\[C@@H]2OC(=O)[C@]3(C)O[C@]23[C@@H](OC(C)=O)[C@H]2[C@@H](C)[C@@H](O)C[C@H](OC(C)=O)[C@]2(C)[C@H]1OC(C)=O [BrD1, excavatolide B]
TPA-stimulated phosphorylation of IκBα (IκBα): significantly inhibited the TPA-stimulated phosphorylation of Akt and IκBα | TPA-stimulated phosphorylation of IκBα (IκBα; listed as excavatolide B): significantly inhibits the TPA-stimulated phosphorylation of Akt and IκBα | TPA-induced COX-2 expression (COX-2): reduced the TPA-induced COX-2 expression in the epidermis | TPA-induced COX-2 expression (COX-2; listed as excavatolide B): reduces the TPA-induced COX-2 expression in the epidermis | TNF-α expression in LPS-stimulated dendritic cells (TNF-α): inhibited TNF-a expression to a much lesser extent | TNF-α expression in LPS-stimulated dendritic cells (TNF-α; listed as Excavatolide B): inhibits TNF-α expression to a much lesser extent | inhibition of TPA-induced MMP-9 protein expression (MMP-9; 1 mg/site/mouse topical, 24 h after TPA): ≤ 89% | TPA-induced MMP-9 protein expression (in words) (MMP-9): significantly inhibited TPA-induced MMP-9 protein expression in a dose-dependent manner | TPA-induced MMP-9 protein expression (in words) (MMP-9; listed as excavatolide B): significantly inhibits TPA-induced MMP-9 protein expression in a dose-dependent manner
